Experimental data published in patent US20030215462A1, “Use of UGT inhibitors to increase bioavailability” (priority 2001, published 2003).
“And” between values parts separate entries of the source, which are not always exact repeats. Equal entries are not always repeated.

How the values were obtained:
UGT1A1 [1] = target: T1, UGT1A1 (Homo sapiens, UniProt P22309); test: Substrate glucuronidation by recombinant UGT1A1; details: for 7-HFC glucuronidation rate: 7-HFC 50 μM
T1 sequence (P22309 26-533): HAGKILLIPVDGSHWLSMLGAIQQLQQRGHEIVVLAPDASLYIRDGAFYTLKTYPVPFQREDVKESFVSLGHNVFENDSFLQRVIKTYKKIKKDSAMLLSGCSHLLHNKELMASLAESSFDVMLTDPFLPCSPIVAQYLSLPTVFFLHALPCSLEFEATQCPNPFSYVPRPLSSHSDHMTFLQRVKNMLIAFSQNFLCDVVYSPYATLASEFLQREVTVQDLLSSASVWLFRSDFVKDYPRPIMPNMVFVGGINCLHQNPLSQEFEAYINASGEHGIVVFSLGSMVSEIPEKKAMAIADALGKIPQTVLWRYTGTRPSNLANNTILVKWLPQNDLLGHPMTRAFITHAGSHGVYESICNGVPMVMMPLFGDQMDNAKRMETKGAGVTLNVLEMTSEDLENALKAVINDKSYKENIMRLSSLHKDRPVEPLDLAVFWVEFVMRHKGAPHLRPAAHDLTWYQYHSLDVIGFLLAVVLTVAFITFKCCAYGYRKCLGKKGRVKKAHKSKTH

UGT2B15 [2] = target: T2, UGT2B15 (Homo sapiens, UniProt P54855); test: Substrate glucuronidation by recombinant UGT2B15; details: UGT2B15 Supersomes 250 μg/ml; 7-HFC 50 μM
T2 sequence (P54855 24-530): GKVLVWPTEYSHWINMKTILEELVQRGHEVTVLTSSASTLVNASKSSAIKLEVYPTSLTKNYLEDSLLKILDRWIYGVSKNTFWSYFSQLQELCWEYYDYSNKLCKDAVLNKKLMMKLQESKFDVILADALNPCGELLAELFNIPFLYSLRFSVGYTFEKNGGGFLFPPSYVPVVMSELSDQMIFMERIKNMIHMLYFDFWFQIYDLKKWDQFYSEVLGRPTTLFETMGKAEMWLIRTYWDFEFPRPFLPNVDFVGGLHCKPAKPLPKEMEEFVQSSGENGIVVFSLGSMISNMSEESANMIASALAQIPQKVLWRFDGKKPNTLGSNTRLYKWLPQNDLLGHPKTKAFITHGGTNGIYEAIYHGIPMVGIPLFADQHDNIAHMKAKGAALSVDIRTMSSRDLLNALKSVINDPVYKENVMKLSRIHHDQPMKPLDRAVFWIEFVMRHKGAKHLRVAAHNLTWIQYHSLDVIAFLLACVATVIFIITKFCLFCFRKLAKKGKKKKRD

UGT2B7 = target: T3, UGT2B7 (Homo sapiens, UniProt P16662); test: Substrate glucuronidation by recombinant UGT2B7; details: for 7-HFC glucuronidation rate: 7-HFC 50 μM
T3 sequence (P16662 24-529): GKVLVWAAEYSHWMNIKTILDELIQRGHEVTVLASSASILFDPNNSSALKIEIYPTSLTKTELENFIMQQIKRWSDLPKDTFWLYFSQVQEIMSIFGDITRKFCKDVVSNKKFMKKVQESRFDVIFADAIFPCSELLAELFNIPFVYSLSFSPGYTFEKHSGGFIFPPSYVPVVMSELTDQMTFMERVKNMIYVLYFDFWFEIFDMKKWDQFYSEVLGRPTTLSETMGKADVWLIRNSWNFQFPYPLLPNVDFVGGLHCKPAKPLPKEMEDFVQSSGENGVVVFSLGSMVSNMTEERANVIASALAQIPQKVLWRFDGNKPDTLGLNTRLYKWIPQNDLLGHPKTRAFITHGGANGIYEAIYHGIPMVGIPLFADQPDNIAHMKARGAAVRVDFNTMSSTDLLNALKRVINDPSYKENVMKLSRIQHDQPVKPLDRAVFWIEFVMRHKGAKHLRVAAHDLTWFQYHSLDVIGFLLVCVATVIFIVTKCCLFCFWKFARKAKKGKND

UGT1A7 = UGT1A7 (Homo sapiens, UniProt Q9HAW7); test: Substrate glucuronidation by recombinant UGT1A7; assay type: in vitro ADME; details: UGT1A7 Bacculosomes 250 μg/ml; 7-HFC 50 μM
Chain of UGT1A7 (Q9HAW7 26-530): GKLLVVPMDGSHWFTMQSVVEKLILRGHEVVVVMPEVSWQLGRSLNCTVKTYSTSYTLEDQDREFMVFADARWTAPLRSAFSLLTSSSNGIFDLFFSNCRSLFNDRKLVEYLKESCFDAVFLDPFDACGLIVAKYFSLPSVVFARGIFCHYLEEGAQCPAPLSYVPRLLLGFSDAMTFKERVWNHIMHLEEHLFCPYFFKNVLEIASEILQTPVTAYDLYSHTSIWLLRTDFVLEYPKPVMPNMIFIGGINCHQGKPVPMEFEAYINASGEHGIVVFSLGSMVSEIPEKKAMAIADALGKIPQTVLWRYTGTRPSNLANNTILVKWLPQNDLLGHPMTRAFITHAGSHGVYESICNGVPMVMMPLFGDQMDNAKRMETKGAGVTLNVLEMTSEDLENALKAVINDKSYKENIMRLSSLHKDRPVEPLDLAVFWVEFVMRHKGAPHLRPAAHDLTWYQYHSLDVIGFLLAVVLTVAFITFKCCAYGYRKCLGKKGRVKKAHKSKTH

UGT1A9 = target: T4, UGT1A9 (Homo sapiens, UniProt O60656); test: Substrate glucuronidation by recombinant UGT1A9
T4 sequence (O60656 26-530): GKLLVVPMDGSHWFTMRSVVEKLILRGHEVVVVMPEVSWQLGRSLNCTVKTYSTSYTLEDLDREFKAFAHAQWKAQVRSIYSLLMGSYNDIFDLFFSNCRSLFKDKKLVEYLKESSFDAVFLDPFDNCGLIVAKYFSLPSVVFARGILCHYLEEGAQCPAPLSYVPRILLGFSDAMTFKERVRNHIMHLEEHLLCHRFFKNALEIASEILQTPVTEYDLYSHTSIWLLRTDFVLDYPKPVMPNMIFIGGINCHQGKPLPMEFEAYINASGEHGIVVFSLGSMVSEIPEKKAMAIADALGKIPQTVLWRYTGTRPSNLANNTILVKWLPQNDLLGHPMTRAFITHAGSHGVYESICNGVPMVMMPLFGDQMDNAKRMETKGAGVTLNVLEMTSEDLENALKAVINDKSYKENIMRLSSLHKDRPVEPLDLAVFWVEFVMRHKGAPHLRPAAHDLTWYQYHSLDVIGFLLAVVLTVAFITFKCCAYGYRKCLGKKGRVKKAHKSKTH

UGT1A1 [3] = target: T1, UGT1A1; test: in vitro
Method: (§1) Compounds were eluted using a binary solvent gradient system. Solvent A was water brought to pH 8 with NH4OH. Solvent B was methanol. Solvent flow rate was 1 ml/min and the column temperature was maintained at 50° C. Detection was at 280 nm. […] The system was then returned to the initial conditions and equilibrated for 3 min.

UGT1A3 = target: T5, UGT1A3 (Homo sapiens, UniProt P35503); test: in vitro
T5 sequence (P35503 29-534): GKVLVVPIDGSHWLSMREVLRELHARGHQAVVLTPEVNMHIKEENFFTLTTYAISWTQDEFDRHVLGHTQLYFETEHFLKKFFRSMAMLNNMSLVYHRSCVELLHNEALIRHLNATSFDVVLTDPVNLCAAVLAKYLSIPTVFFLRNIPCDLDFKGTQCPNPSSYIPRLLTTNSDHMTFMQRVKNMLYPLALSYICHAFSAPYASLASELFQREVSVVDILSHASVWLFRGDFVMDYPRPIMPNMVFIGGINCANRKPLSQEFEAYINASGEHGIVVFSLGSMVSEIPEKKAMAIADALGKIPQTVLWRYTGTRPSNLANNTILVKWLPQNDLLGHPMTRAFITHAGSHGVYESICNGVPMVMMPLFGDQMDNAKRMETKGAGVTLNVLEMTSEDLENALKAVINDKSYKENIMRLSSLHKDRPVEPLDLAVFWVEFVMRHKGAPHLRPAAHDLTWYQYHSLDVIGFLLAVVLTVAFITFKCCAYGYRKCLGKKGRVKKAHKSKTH
Method: as §1

UGT2B15 [4] = target: T2, UGT2B15
[5] = pH 7.5, % of control metabolism, raloxifene G1
[6] = pH 7.5, % of control metabolism, raloxifene G2
[7] = pH 7.5, Inhibition of raloxifene glucuronidation, G1, UGT1A1
[8] = pH 7.5, Inhibition of raloxifene glucuronidation, G2, UGT1A1
[9] = pH 7.5, Inhibition of raloxifene glucuronidation, G1, UGT1A3
[10] = pH 7.5, Inhibition of raloxifene glucuronidation, G2, UGT1A3

Row | Structure (SMILES) | activity at 15 min, 25 µM (UGT1A1 [3]; [5]) [%] | activity at 15 min, 50 µM (UGT1A1 [3]; [5]) [%] | activity at 15 min, 25 µM (UGT1A1 [3]; [6]) [%] | activity at 15 min, 50 µM (UGT1A1 [3]; [6]) [%] | activity at 15 min, 25 µM (UGT1A1 [3]; [7]) [%] | activity at 15 min, 50 µM (UGT1A1 [3]; [7]) [%] | activity at 15 min, 25 µM (UGT1A1 [3]; [8]) [%] | activity at 15 min, 50 µM (UGT1A1 [3]; [8]) [%] | activity at 15 min, 50 µM (UGT1A3; [5]) [%] | activity at 15 min, 50 µM (UGT1A3; [6]) [%] | activity at 15 min, 50 µM (UGT1A3; [9]) [%] | activity at 15 min, 50 µM (UGT1A3; [10]) [%] | other results
1 | O=c1cc(C(F)(F)F)c2ccc(O)cc2o1 [7-HFC, 7-hydroxy-4-(trifluoromethyl)coumarin] |  |  |  |  |  |  |  |  |  |  |  |  | 7-HFC glucuronidation rate in Panvera Bacculosomes as % of Gentest Supersomes (UGT1A1 [1]; UGT1A1): 42%; 7-HFC glucuronidation rate (UGT1A1 [1]; UGT1A1 Bacculosomes 250 μg/ml): 346 ± 12 pmol/min/mg protein; 7-HFC glucuronidation rate (UGT1A1 [1]; UGT1A1 Supersomes 250 μg/ml): 816 ± 70 pmol/min/mg protein and 929 ± 7 pmol/min/mg protein; 7-HFC glucuronidation rate (UGT2B15 [2]): 976 ± 17 pmol/min/mg protein; 7-HFC glucuronidation rate in Panvera Bacculosomes as % of Gentest Supersomes (UGT2B7; UGT2B7): 22%; 7-HFC glucuronidation rate (UGT2B7; UGT2B7 Bacculosomes 250 μg/ml): 212 ± 13 pmol/min/mg protein; 7-HFC glucuronidation rate (UGT2B7; UGT2B7 Supersomes 250 μg/ml): 972 ± 72 pmol/min/mg protein; 7-HFC glucuronidation rate (UGT1A7): 564 ± 9 pmol/min/mg protein; 7-HFC glucuronidation rate as % of the rate for UGT1A6 (UGT1A9; UGT1A9): 81%; 7-HFC glucuronidation rate (UGT1A9; UGT1A9 Supersomes 250 μg/ml, 7-HFC 50 μM): 3976 ± 41 pmol/min/mg protein
2 | C=CCc1ccc(O)c(OC)c1 [Eugenol] |  |  |  |  |  |  |  |  | 89 | 85 | 89 | 85 | activity at 15 min, 50 µM (UGT1A1 [3]; pH 7.5, % of control metabolism, raloxifene G1, UGT1A1, inhibitor 50 μM): 85%; activity at 15 min, 50 µM (UGT1A1 [3]; pH 7.5, % of control metabolism, raloxifene G2, UGT1A1, inhibitor 50 μM): 79%; activity at 15 min, 50 µM (UGT1A1 [3]; pH 7.5, Inhibition of raloxifene glucuronidation, G1, UGT1A1, G1, inhibitor 50 μM, raloxifene 50 μM, 250 μg/ml Supersomes, 1 mM UDPGA, 15 min): 85%; activity at 15 min, 50 µM (UGT1A1 [3]; pH 7.5, Inhibition of raloxifene glucuronidation, G2, UGT1A1, G2, inhibitor 50 μM, raloxifene 50 μM, 250 μg/ml Supersomes, 1 mM UDPGA, 15 min): 79%
3 | CC(CCc1ccccc1)NCC(O)c1ccc(O)c(C(N)=O)c1 (stereo not shown) [Labetalol, labetalol] |  |  |  |  |  |  |  |  |  |  |  |  | labetalol metabolism, in words (UGT2B15 [4]): No detectable metabolism was observed
4 | CCCOC(=O)c1cc(O)c(O)c(O)c1 [Propyl gallate] |  | 72 |  | 73 |  | 72 |  | 73 | 55 | 56 | 55 | 56 | activity at 15 min, 25 µM (UGT1A3; [9]): 72%; activity at 15 min, 25 µM (UGT1A3; [10]): 79%
5 | O=c1c(O)c(-c2ccc(O)c(O)c2)oc2cc(O)cc(O)c12 [Quercetin] | 13 | 2 | 13 | 3 | 13 | 2 | 13 | 3 |  |  |  |  | activity at 15 min, 10 µM (UGT1A1 [3]; [5]): 45%; activity at 15 min, 10 µM (UGT1A1 [3]; [6]): 43%; activity at 15 min, 2 μM (UGT1A1 [3]; [7]): 89%; activity at 15 min, 5 µM (UGT1A1 [3]; [7]): 71%; activity at 15 min, 2 μM (UGT1A1 [3]; [8]): 90%; activity at 15 min, 5 µM (UGT1A1 [3]; [8]): 70%

Second part, led by results:

Row | activity at 15 min, 25 µM (UGT1A1 [3]; [5]) [%] | activity at 15 min, 50 µM (UGT1A1 [3]; [5]) [%] | activity at 15 min, 25 µM (UGT1A1 [3]; [6]) [%] | activity at 15 min, 50 µM (UGT1A1 [3]; [6]) [%] | activity at 15 min, 25 µM (UGT1A1 [3]; [7]) [%] | activity at 15 min, 50 µM (UGT1A1 [3]; [7]) [%] | activity at 15 min, 25 µM (UGT1A1 [3]; [8]) [%] | activity at 15 min, 50 µM (UGT1A1 [3]; [8]) [%] | activity at 15 min, 50 µM (UGT1A3; [5]) [%] | activity at 15 min, 50 µM (UGT1A3; [6]) [%] | activity at 15 min, 50 µM (UGT1A3; [9]) [%] | activity at 15 min, 50 µM (UGT1A3; [10]) [%] | Structure (SMILES) | other results
6 | 53 | 31 | 53 | 33 | 53 | 31 | 53 | 33 | 83 | 81 | 83 | 81 | O=C(O)c1cc(-c2ccc(F)cc2F)ccc1O [Diflunisal, reference compound] | 
7 | 39 | 23 | 43 | 25 | 39 | 23 | 43 | 25 | 57 | 42 | 57 | 42 | O=C(O[C@@H]1Cc2c(O)cc(O)cc2O[C@@H]1c1ccc(O)c(O)c1)c1cc(O)c(O)c(O)c1 [Epicatechin gallate] | 
